From the supplement of paper PMC11208160

Experiment: recombinant barcode read abundance after kanamycin selection (control-corrected) (log10(CPM+1)); higher = more efficient recombination; sequences stand for … in AGTGCAGAGAAAATCGGCCAGTTTTCTCTGCCTGCAGTCCGCATGCCGT…ATTTATGCAGCGGACTGCCTTTCTCCCAAAGTGATAAACCGGACAGTATCATGGACCGGTTTTCCCGGTAATCCGTATTTGCAAGGTTGGTTTCACT; site = the 11-nt target
Summary of the method: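 This pooled E. coli screen matched targets with IS621 bridge RNA target-binding loops. Plating was done in duplicate on chloramphenicol/ampicillin LB agar as a control and on chloramphenicol/ampicillin/kanamycin plus 0.1 mM IPTG. Recombination efficiency reflects barcode counts at recombinant junctions as counts per million, averaged and control-corrected. The figures are log10(CPM+1).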

“GGACACCTCTGGGTTCTAACCTGTTGCCTGA [GGACACCCTAG_LTGcore_TC_RTGcore_TC] (site GGACACCCTAG) (LTG core: TC, RTG core: TC)” and “GGACACCTGTGGGTTCTAACCTGTTGCCTAG [GGACACCCTAG_LTGcore_TG_RTGcore_CT] (site GGACACCCTAG) (LTG core: TG, RTG core: CT)” are within 0.2 log units of each other in “recombinant barcode read abundance (log10)” value: 0.149 for the first, 0.0753 for the second.

“GGACACCTGTGGGTTCTAACCTGTTGCCTCA [GGACACCCTAG_LTGcore_TG_RTGcore_TG] (site GGACACCCTAG) (LTG core: TG, RTG core: TG)” and “GGACACCTTTGGGTTCTAACCTGTTGCCTAA [GGACACCCTAG_LTGcore_TT_RTGcore_TT] (site GGACACCCTAG) (LTG core: TT, RTG core: TT)” are within 0.2 log units of each other in “recombinant barcode read abundance (log10)” value: 0.15 for the first, 0.175 for the second.

“GGACACCTTTGGGTTCTAACCTGTTGCCTAG [GGACACCCTAG_LTGcore_TT_RTGcore_CT] (site GGACACCCTAG) (LTG core: TT, RTG core: CT)” and “GGCTCCCATTGGGTTCTAACCTGTTGCGGAG [GGCTCCCCTCC_LTGcore_AT_RTGcore_CT] (site GGCTCCCCTCC) (LTG core: AT, RTG core: CT)” are within 0.2 log units of each other in “recombinant barcode read abundance (log10)” value: 0.0765 for the first, 0.157 for the second.

Compared with “GGCTCCCCTTGGGTTCTAACCTGTTGCGGAC [GGCTCCCCTCC_LTGcore_CT_RTGcore_GT] (site GGCTCCCCTCC) (LTG core: CT, RTG core: GT)”, “GGCTCCCCTTGGGTTCTAACCTGTTGCGGGA [GGCTCCCCTCC_LTGcore_CT_RTGcore_TC] (site GGCTCCCCTCC) (LTG core: CT, RTG core: TC)” is higher in “recombinant barcode read abundance (log10)” value: 0.0822 for the first, 0.302 for the second.

“GGCTCCCCTTGGGTTCTAACCTGTTGCGGGC [GGCTCCCCTCC_LTGcore_CT_RTGcore_GC] (site GGCTCCCCTCC) (LTG core: CT, RTG core: GC)” and “GGCTCCCGCTGGGTTCTAACCTGTTGCGGAG [GGCTCCCCTCC_LTGcore_GC_RTGcore_CT] (site GGCTCCCCTCC) (LTG core: GC, RTG core: CT)” are within 0.2 log units of each other in “recombinant barcode read abundance (log10)” value: 0.112 for the first, 0.0135 for the second.

“GGCTCCCGGTGGGTTCTAACCTGTTGCGGAG [GGCTCCCCTCC_LTGcore_GG_RTGcore_CT] (site GGCTCCCCTCC) (LTG core: GG, RTG core: CT)” and “GGCTCCCTATGGGTTCTAACCTGTTGCGGAG [GGCTCCCCTCC_LTGcore_TA_RTGcore_CT] (site GGCTCCCCTCC) (LTG core: TA, RTG core: CT)” are within 0.2 log units of each other in “recombinant barcode read abundance (log10)” value: 0.0853 for the first, 0.233 for the second.

“GGGAGCCACTGGGTTCTAACCTGTTGCTGGT [GGGAGCCCTCA_LTGcore_AC_RTGcore_AC] (site GGGAGCCCTCA) (LTG core: AC, RTG core: AC)” and “GGGAGCCCCTGGGTTCTAACCTGTTGCTGGG [GGGAGCCCTCA_LTGcore_CC_RTGcore_CC] (site GGGAGCCCTCA) (LTG core: CC, RTG core: CC)” are within 0.2 log units of each other in “recombinant barcode read abundance (log10)” value: 0.222 for the first, 0.0526 for the second.

Going from “GGGAGCCCTTGGGTTCTAACCTGTTGCTGAC [GGGAGCCCTCA_LTGcore_CT_RTGcore_GT] (site GGGAGCCCTCA) (LTG core: CT, RTG core: GT)” to “GGGAGCCCTTGGGTTCTAACCTGTTGCTGGA [GGGAGCCCTCA_LTGcore_CT_RTGcore_TC] (site GGGAGCCCTCA) (LTG core: CT, RTG core: TC)”, the “recombinant barcode read abundance (log10)” value falls from 1.06 to 0.172.

“GGGAGCCCTTGGGTTCTAACCTGTTGCTGTA [GGGAGCCCTCA_LTGcore_CT_RTGcore_TA] (site GGGAGCCCTCA) (LTG core: CT, RTG core: TA)” and “GGGAGCCGTTGGGTTCTAACCTGTTGCTGAC [GGGAGCCCTCA_LTGcore_GT_RTGcore_GT] (site GGGAGCCCTCA) (LTG core: GT, RTG core: GT)” are within 0.2 log units of each other in “recombinant barcode read abundance (log10)” value: 0.029 for the first, 0.168 for the second.

“GGGAGCCGTTGGGTTCTAACCTGTTGCTGAG [GGGAGCCCTCA_LTGcore_GT_RTGcore_CT] (site GGGAGCCCTCA) (LTG core: GT, RTG core: CT)” and “GGGAGCCTCTGGGTTCTAACCTGTTGCTGAG [GGGAGCCCTCA_LTGcore_TC_RTGcore_CT] (site GGGAGCCCTCA) (LTG core: TC, RTG core: CT)” are within 0.2 log units of each other in “recombinant barcode read abundance (log10)” value: 0.186 for the first, 0.0348 for the second.

“GGGAGCCTCTGGGTTCTAACCTGTTGCTGGA [GGGAGCCCTCA_LTGcore_TC_RTGcore_TC] (site GGGAGCCCTCA) (LTG core: TC, RTG core: TC)” and “GGGAGCCTTTGGGTTCTAACCTGTTGCTGAA [GGGAGCCCTCA_LTGcore_TT_RTGcore_TT] (site GGGAGCCCTCA) (LTG core: TT, RTG core: TT)” are within 0.2 log units of each other in “recombinant barcode read abundance (log10)” value: 0.0883 for the first, 0.11 for the second.

First: GGGCGGACTTGGGTTCTAACCTGTTGCGGAG [GGGCGGACTCC_LTGcore_CT_RTGcore_CT] (site GGGCGGACTCC) (LTG core: CT, RTG core: CT)
Second: GGGCGGACTTGGGTTCTAACCTGTTGCGGCC [GGGCGGACTCC_LTGcore_CT_RTGcore_GG] (site GGGCGGACTCC) (LTG core: CT, RTG core: GG)
The “recombinant barcode read abundance (log10)” value of the first is higher: 2.08 for the first, 0.0677 for the second.

“GGGCGGACTTGGGTTCTAACCTGTTGCGGCG [GGGCGGACTCC_LTGcore_CT_RTGcore_CG] (site GGGCGGACTCC) (LTG core: CT, RTG core: CG)” and “GGGCGGACTTGGGTTCTAACCTGTTGCGGGG [GGGCGGACTCC_LTGcore_CT_RTGcore_CC] (site GGGCGGACTCC) (LTG core: CT, RTG core: CC)” are within 0.2 log units of each other in “recombinant barcode read abundance (log10)” value: 0.232 for the first, 0.212 for the second.

Going from “GGGCGGACTTGGGTTCTAACCTGTTGCGGTA [GGGCGGACTCC_LTGcore_CT_RTGcore_TA] (site GGGCGGACTCC) (LTG core: CT, RTG core: TA)” to “GGGCGGACTTGGGTTCTAACCTGTTGCGGTT [GGGCGGACTCC_LTGcore_CT_RTGcore_AA] (site GGGCGGACTCC) (LTG core: CT, RTG core: AA)”, the “recombinant barcode read abundance (log10)” value rises from 0.0865 to 0.765.

First: GGGCGGAGATGGGTTCTAACCTGTTGCGGTC [GGGCGGACTCC_LTGcore_GA_RTGcore_GA] (site GGGCGGACTCC) (LTG core: GA, RTG core: GA)
Second: GGGCGGATCTGGGTTCTAACCTGTTGCGGAG [GGGCGGACTCC_LTGcore_TC_RTGcore_CT] (site GGGCGGACTCC) (LTG core: TC, RTG core: CT)
The “recombinant barcode read abundance (log10)” value of the first is lower: 0.235 for the first, 0.798 for the second.

“GGGCGGATTTGGGTTCTAACCTGTTGCGGAA [GGGCGGACTCC_LTGcore_TT_RTGcore_TT] (site GGGCGGACTCC) (LTG core: TT, RTG core: TT)” and “GGGCGGATTTGGGTTCTAACCTGTTGCGGAG [GGGCGGACTCC_LTGcore_TT_RTGcore_CT] (site GGGCGGACTCC) (LTG core: TT, RTG core: CT)” are within 0.2 log units of each other in “recombinant barcode read abundance (log10)” value: 0.223 for the first, 0.188 for the second.

“GGGCGTGAATGGGTTCTAACCTGTTGCCTAG [GGGCGTGCTAG_LTGcore_AA_RTGcore_CT] (site GGGCGTGCTAG) (LTG core: AA, RTG core: CT)” and “GGGCGTGCCTGGGTTCTAACCTGTTGCCTGG [GGGCGTGCTAG_LTGcore_CC_RTGcore_CC] (site GGGCGTGCTAG) (LTG core: CC, RTG core: CC)” are within 0.2 log units of each other in “recombinant barcode read abundance (log10)” value: 0.0426 for the first, 0.138 for the second.
